The values below come from ChEMBL document CHEMBL1136663, “Structure-activity relationships studies of the anti-angiogenic activities of linomide” (Bioorg Med Chem Lett, 2003).

Usually IC50 stands for the concentration that inhibits the measured activity by half. Read a high IC50 as lower potency.

SMILES strings stand for the structures.

The species named for one experiment is Gallus gallus. In words: Effective concentration for inhibiting blood vessel formation in the CAM (Chicken chorioallantoic membrane) angiogenesis assay. The format is functional.
The test system of another experiment is HUVEC. The experiment can be described thus: Inhibitory concentration against Human umbilical vein endothelial cell (HUVEC) proliferation. It is filed as functional, cell-based.
Another experiment deals with PC-3. The experiment can be described thus: Antiproliferative activity against PC-3 prostate cancer cells. It is filed as functional, cell-based. The following applies: Homo sapiens.

`Cn1c(=O)c(C(=O)Nc2ccccc2)c(O)c2ccccc21` had an ED50 in the experiment filed under Gallus gallus of 18 µg embryo-1. In addition, the IC50 in the experiment on HUVEC was 7.2 µM; in the experiment on PC-3, above 100 µM.

In the experiment listed under Gallus gallus, `O=C(Nc1ccccc1)c1cc2ccccc2nc1O` had an ED50 above 100 µg embryo-1. In the experiment with PC-3, this compound displayed an IC50 above 100 µM.

In turn, `CN(C(=O)c1c(O)c2ccccc2n(C)c1=O)c1ccccc1` [ROQUINIMEX] registered an ED50 in the experiment filed under Gallus gallus of 60.1 µg embryo-1. Further, the results for the IC50 in the experiment with HUVEC and in the experiment on PC-3 were 14 µM and above 100 µM, respectively.

Take `O=C(Nc1ccccc1)c1c(O)nc2ccccc2c1O`: the ED50 in the experiment listed under Gallus gallus was found to be 0.87 µg embryo-1. Moreover, the IC50 in the experiment on HUVEC was 4 µM; in the experiment with PC-3, above 100 µM.

Compound `CN(C(=O)c1c(O)nc2ccccc2c1O)c1ccccc1` had an ED50 in the experiment filed under Gallus gallus of 7.5 µg embryo-1. Further, the IC50 with HUVEC was 6.55 µM; in the experiment with PC-3, above 100 µM.

`CN(C(=O)c1cc2ccccc2n(C)c1=O)c1ccccc1` yielded an ED50 in the experiment listed under Gallus gallus above 100 µg embryo-1. In the experiment on PC-3, this compound came in with an IC50 above 100 µM.

As for `CN(C)C(=O)c1c(O)c2ccccc2n(C)c1=O`, the ED50 in the experiment filed under Gallus gallus worked out at 8.5 µg embryo-1. In addition, the IC50 was 16.5 µM with HUVEC and above 100 µM with PC-3.
